Laboratory results reported in US7538083B2, “Compositions and methods for the potentiation of immune responses against target antigens” (Intercell AG, priority 2003, dated 2009).
Entries after “also recorded” stand apart in the source; their conditions may differ.

Assays:
[1] = system: OVA257-64 peptide specific IFNγ+ CD8+ T cells; set-up: species or system C57Bl/6 mice; conditions: mouse, in vivo
[2] = system: malaria mimetic UK39 (serum IgG against it); experiment: UK39 ELISA of mouse sera after immunization with UK39 IRIV with or without melittin; type: in vivo; conditions: Balb/c mice, UK39 IRIV (20 μg UK39) + 10 μg melittin; sera day 21 and 35, IgG ELISA read at 492 nm
Procedure: Balb/c mice were immunized with 100 μl PBS containing: the malaria mimetic UK39 (20 μg UK39) in combination with an IRIV with or without 10 μg Melittin. For the UK39 ELISA, ELISA plates were coated over night at 4° C. with 10 μg/ml UK39 in PBS. After washing with PBS 0.05% Tween20 plates were blocked with 5% dry milk in PBS 2 h at 37° C. Mouse sera from day 21 and 35 were initially diluted 1:10 and titrated in serial 1:2 dilutions in PBS 0.05% Tween20 0.5% dry milk. After 2 h incubation at 37° C. plates were washed and incubated with goat […]-mouse IgG HRP Ab (BD Bioscience) (1:5000 in PBS 0.05% Tween20 0.5% dry milk) 1 h 37° C. Plates were developed with OPD-substrate (OPD (O-Phenylenediamine tablets, Fluka, Switzerland, 1 tablet in 50 ml citrate buffer+50 μl H2O2) for 30 min. The reaction was stopped with 1 M H2SO4 and plates were read at 492 nm.
UK39 IRIV: 4 mg UK39, 4 mg influenza A/Singapore, 32 mg phosphatidylcholine (PC) and 8 mg phosphatidylethanolamine (PE) were resuspended in 4 ml 100 mM OEG in PBS (OEG-PBS), sonicated for 1 min and centrifugated for 1 h at 100′000×g at 20° C. […]
UK39 ELISA: ELISA plates were coated over night at 4° C. with 10 μg/ml UK39 in PBS. […] Plates were developed with OPD-substrate (OPD (O-Phenylendiamine tablets, Fluka, Switzerland, 1 tablet in 50 ml citrate buffer+50 μl H2O2) for 30 min. The reaction was stopped with 1 M H2SO4 and plates were read at 492 nm.

[3] = system: IFNγ+ CD8+ T cells specific for T4 peptide VVYDFLKCM (Kb/T404-412); experiment: Splenic T4-specific IFNγ+ CD8+ T cell frequency after i.m. vaccination with T4/melittin-derived fusion peptide with or without ODN; type: in vivo, C57BL/6 (B6) mice; conditions: B6 mice, 35 nmol i.m.; for dependence of adjuvant activity on CpG motifs in the ODN: NSS+ ODN-1982 (no CpG) versus ISS+ ODN-1826 (CpG)
Text: The adjuvant activity of the melittin-derived peptide thus acts synergistically even with oligodeoxynucleotides that lack any immunostimulatory sequences. C57BL/6 (B6) mice were either not immunized (group 1) or vaccinated i.m. with 35 nmol of peptides alone (group 2) or mixed with oligodeoxynucleotide (group 3), not containing (A; NSS^+ ODN-1982; SEQ ID NO: 7), or containing (B; ISS^+ ODN-1826; SEQ ID NO: 6) CpG motifs. Spleen cells obtained from immune mice 12 days post vaccination were restimulated ex vivo with the T4 peptide VVYDFLKCM (K^b/T404-412, SEQ ID NO: 4). Mean number of specific IFNγ^+ CD8^+ T cells/10^5 CD8^+ T cells±SD (of 6 mice per group) averaged from two independent experiments are shown.
Fusion of a sample antigen (here, T4 peptide) to the melittin-derived peptide and binding ODN to them creates potent immunogens for CD8^+ T cells. A sample target antigen, the SV40-derived T4 peptide T404-417 VVYDFLKCMVYNIP (SEQ ID NO: 5) was fused to a duplicated amino acid sequence derived from melittin (KRKRQKRKRQ, SEQ ID NO: 2). B6 mice were vaccinated i.m. with 35 nmol of these peptides alone (group 2), or mixed with ODN (group 3), not containing (A; NSS+ ODN-1982), or containing (B; ISS+ ODN-1826) CpG motifs (FIG. 1). Spleen cells obtained from immune mice 12 days post-vaccination were restimulated ex vivo with the T4 peptide VVYDFLKCM (SEQ ID NO: 4) (Kb/T404-412). Mean numbers of specific IFNγ^+ CD8^+ T cells/10^5 CD8^+ T cells±SD (of 6 mice per group) averaged from two independent experiments are shown.
C57BL/6JBom (B6) mice (H-2b) were bred and kept under standard pathogen-free conditions in the animal colony of Ulm University (Ulm, Germany). Male/female mice were used at 12-16 wks of age. The preparation of cationic peptide/ODN vaccines CpG containing ODN-1826 ([…]; ISS-1826, SEQ ID NO: 6) and its control ODN-1982 ([…]; NSS-1982, SEQ ID NO: 7) were obtained from MWG (Ebersberg, Germany). ODN were synthesized with phosphorothioate backbones. […] The number of CD8^+ IFNγ^+ T cells per 10^5 splenic CD8^+ T cells was determined by FCM analyses.

CKRKRQKRKRQSIINFEKL [Cys-Mel-OVA257-64]
adjuvant effect in combination with IRIVs (peptide specific IFNγ+ CD8+ T cells) [1]: further potentiated by its combination with IRIVs; also recorded: further synergizes with IRIVs

CC[C@H](C)[C@H](NC(=O)CN)C(=O)NCC(=O)N[C@@H](C)C(=O)N[C@H](C(=O)N[C@@H](CC(C)C)C(=O)N[C@@H](CCCCN)C(=O)N[C@H](C(=O)N[C@@H](CC(C)C)C(=O)N[C@H](C(=O)N[C@H](C(=O)NCC(=O)N[C@@H](CC(C)C)C(=O)N1CCC[C@H]1C(=O)N[C@@H](C)C(=O)N[C@@H](CC(C)C)C(=O)N[C@H](C(=O)N[C@@H](CO)C(=O)N[C@@H](Cc1c[nH]c2ccccc12)C(=O)N[C@H](C(=O)N[C@@H](CCCCN)C(=O)N[C@@H](CCCNC(=N)N)C(=O)N[C@@H](CCCCN)C(=O)N[C@@H](CCCNC(=N)N)C(=O)N[C@@H](CCC(N)=O)C(=O)N[C@@H](CCC(N)=O)C(N)=O)[C@@H](C)CC)[C@@H](C)CC)[C@@H](C)O)[C@@H](C)O)C(C)C)C(C)C [melittin]
humoral immune response (B cell immunity) against antigen UK39 coupled to IRIV [2]: adjuvant effect; also recorded: further enhanced

KRKRQKRKRQ (Synthetic peptide derived from Apis mellifera)
adjuvant activity (specific IFNγ+ CD8+ T cells/10^5 CD8+ T cells) ([3]; combined with target antigen T4 and oligodeoxynucleotide, spleen cells 12 days post vaccination restimulated ex vivo with T4 peptide): significant adjuvant activity | dependence of adjuvant activity on CpG motifs in the ODN [3]: not dependent on the presence of CpG sequences in the ODN | dependence of adjuvant activity on CpG motifs in the ODN ([3]; listed as KRKRQKRKRQ): does not depend on the presence of CpG motifs
